The values that follow come from US9505728B2, “Triazolone compounds and uses thereof” (INCEPTION 2, INC., priority 2012, dated 2016).

This assay addresses T1, Human PPARα (Homo sapiens, UniProt Q07869).
T1 construct: host or cells: proprietary non-human mammalian cells
T1 sequence (Q07869 1-468): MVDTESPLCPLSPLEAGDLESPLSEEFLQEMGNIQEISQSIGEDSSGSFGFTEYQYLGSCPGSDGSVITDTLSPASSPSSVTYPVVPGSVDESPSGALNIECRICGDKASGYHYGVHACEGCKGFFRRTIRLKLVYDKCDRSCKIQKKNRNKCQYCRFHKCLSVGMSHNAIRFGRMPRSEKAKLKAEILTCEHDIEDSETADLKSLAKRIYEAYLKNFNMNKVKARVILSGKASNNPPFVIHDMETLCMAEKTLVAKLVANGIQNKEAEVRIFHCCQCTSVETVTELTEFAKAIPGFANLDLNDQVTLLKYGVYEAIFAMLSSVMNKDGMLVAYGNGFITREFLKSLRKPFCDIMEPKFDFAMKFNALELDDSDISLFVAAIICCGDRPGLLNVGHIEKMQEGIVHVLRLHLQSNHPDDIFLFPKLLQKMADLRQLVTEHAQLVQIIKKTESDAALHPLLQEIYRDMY
Nature of the assay: Human PPARα Reporter Assay (luciferase). It counts as cell-based. To be noted: human PPARα reporter cells, overnight incubation, antagonism; read-out: Luciferase IC50. Put shortly: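 Agonist or antagonist activity read as luciferase light from engineered reporter cells carrying human PPARα and a responsive reporter gene. Cells got compound immediately on dispensing, incubated overnight, then treatment media swapped for luciferase detection reagent.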
In general, IC50 refers to the point on the concentration scale where inhibition reaches its midpoint. For `CCn1c(CCCc2ccc(-c3ccc(C4(O)CCC4)cc3)cc2)nn(Cc2ccc(C(C)(C)C)cc2)c1=O` [Example 176, 1-(4-(tert-Butyl)benzyl)-4-ethyl-3-(3-(4′-(1-hydroxycyclobutyl)-[1,1′-biphenyl]-4-yl)propyl)-1H-1,2,4-triazol-5(4H)-one], the IC50 turned out to be 78 nM.
On to `CCn1c(CCCc2ccc(-c3cccc(CNS(=O)(=O)c4ccccc4)c3)cc2)nn(Cc2ccc(C(C)(C)C)cc2)c1=O` [Example 177, 1-{[4-(tert-Butyl)phenyl]methyl}-4-ethyl-3-{3-[4-(3-{[(phenylsulfonyl)amino]methyl}phenyl)phenyl]propyl}-1,2,4-triazolin-5-one], for which the IC50 was found to be 419 nM.
As for `CCn1c(CCCc2ccc(-c3cccc(CNS(C)(=O)=O)c3)cc2)nn(Cc2ccc(C(C)(C)C)cc2)c1=O` [Example 178, 1-{[4-(tert-Butyl)phenyl]methyl}-4-ethyl-3-{3-[4-(3-{[(methylsulfonyl)amino]methyl}phenyl)phenyl]propyl}-1,2,4-triazolin-5-one], the IC50 was determined as 417 nM.
Next, `CCn1c(CCCc2ccc(-c3ccc(OC)c(CCC(=O)O)c3)cc2)nn(Cc2ccc(C(C)(C)C)cc2)c1=O` [Example 179, 3-(5-{4-[3-(1-{[4-(tert-Butyl)phenyl]methyl}-4-ethyl-5-oxo(1,2,4-triazolin-3-yl))propyl]phenyl}-2-methoxyphenyl)propanoic acid]: 121 nM; `CCn1c(CCCc2ccc(-c3ccc(OC)c(CNC)c3)cc2)nn(Cc2ccc(C(C)(C)C)cc2)c1=O` [Example 180, 1-{[4-(tert-Butyl)phenyl]methyl}-4-ethyl-3-[3-(4-{4-methoxy-3-[(methylamino)methyl]phenyl}phenyl)propyl]-1,2,4-triazolin-5-one]: 640 nM; `CCn1c(CCCc2ccc(-c3ncc(OC)c(C(=O)O)n3)cc2)nn(Cc2ccc(C(C)(C)C)cc2)c1=O` [Example 181, 2-(4-(3-(1-(4-(tert-Butyl)benzyl)-4-ethyl-5-oxo-4,5-dihydro-1H-1,2,4-triazol-3-yl)propyl)phenyl)-5-methoxypyrimidine-4-carboxylic acid]: 846 nM.
Regarding `CCn1c(CCCc2ccc(-c3ccc(OC)c(CCNS(=O)(=O)c4ccccc4)c3)cc2)nn(Cc2ccc(C(C)(C)C)cc2)c1=O` [Example 182, 1-{[4-(tert-Butyl)phenyl]methyl}-4-ethyl-3-{3-[4-(4-methoxy-3-{2-[(phenylsulfonyl)amino]ethyl}phenyl)phenyl]propyl}-1,2,4-triazolin-5-one], the IC50 stood at 414 nM.
The result for `CCn1c(CCCc2ccc(-c3ccc(OC)c(CCNS(C)(=O)=O)c3)cc2)nn(Cc2ccc(C(C)(C)C)cc2)c1=O` [Example 183, 1-{[4-(tert-Butyl)phenyl]methyl}-4-ethyl-3-{3-[4-(4-methoxy-3-{2-[(methylsulfonyl)amino]ethyl}phenyl)phenyl]propyl}-1,2,4-triazolin-5-one] reads 440 nM; that for `CCn1c(CCCc2ccc(-c3ccc(OC)c(CN)c3)cc2)nn(Cc2ccc(C(C)(C)C)cc2)c1=O` [Example 184, 3-(3-{4-[3-(Aminomethyl)-4-methoxyphenyl]phenyl}propyl)-1-{[4-(tert-butyl)phenyl]methyl}-4-ethyl-1,2,4-triazolin-5-one], 534 nM.
The result for `CCn1c(CCCc2ccc(-c3ccc(OC)c(CNS(=O)(=O)c4ccccc4)c3)cc2)nn(Cc2ccc(C(C)(C)C)cc2)c1=O` [Example 185, 1-{[4-(tert-Butyl)phenyl]methyl}-4-ethyl-3-{3-[4-(4-methoxy-3-{[(phenylsulfonyl)amino]methyl}phenyl)phenyl]propyl}-1,2,4-triazolin-5-one] reads 423 nM; that for `CCn1c(CCCc2ccc(-c3ccc(OC)c(CNS(C)(=O)=O)c3)cc2)nn(Cc2ccc(C(C)(C)C)cc2)c1=O` [Example 186, 1-{[4-(tert-Butyl)phenyl]methyl}-4-ethyl-3-{3-[4-(4-methoxy-3-{[(methylsulfonyl)amino]methyl}phenyl)phenyl]propyl}-1,2,4-triazolin-5-one], 587 nM; that for `CCn1c(CCCc2ccc(-c3ccc(C4(O)CCOCC4)cc3)cc2)nn(Cc2ccc(C(C)(C)C)cc2)c1=O` [Example 187, 1-(4-(tert-Butyl)benzyl)-4-ethyl-3-(3-(4′-(4-hydroxytetrahydro-2H-pyran-4-yl)-[1,1′-biphenyl]-4-yl)propyl)-1H-1,2,4-triazol-5(4H)-one], 607 nM.
On to `CCn1c(CCCc2ccc(-c3ccc(OC)c(CNS(=O)(=O)Cc4ccccc4)c3)cc2)nn(Cc2ccc(C(C)(C)C)cc2)c1=O` [Example 188, 1-{[4-(tert-Butyl)phenyl]methyl}-4-ethyl-3-(3-{4-[4-methoxy-3-({[benzylsulfonyl]amino}methyl)phenyl]phenyl}propyl)-1,2,4-triazolin-5-one], for which the IC50 was determined as 430 nM.
`CCn1c(CCCc2ccc(-c3ccc(OC)c(NS(=O)(=O)CC)n3)cc2)nn(Cc2ccc(C(C)(C)C)cc2)c1=O` [Example 189, 1-{[4-(tert-Butyl)phenyl]methyl}-4-ethyl-3-[3-(4-{6-[(ethylsulfonyl)amino]-5-methoxy(2-pyridyl)}phenyl)propyl]-1,2,4-triazolin-5-one]: the IC50 turned out to be 36 nM.
Next, `CCn1c(CCCc2ccc(-c3ccc(OC)c(NS(=O)(=O)C4CC4)n3)cc2)nn(Cc2ccc(C(C)(C)C)cc2)c1=O` [Example 190, 1-{[4-(tert-Butyl)phenyl]methyl}-4-ethyl-3-[3-(4-{6-[(cyclopropylsulfonyl)amino]-5-methoxy(2-pyridyl)}phenyl)propyl]-1,2,4-triazolin-5-one]: 12 nM; `CCn1c(CCCc2ccc(-c3ccc(C4(F)COC4)cn3)cc2)nn(Cc2ccc(C(C)(C)C)cc2)c1=O` [Example 191, 1-(4-(tert-Butyl)benzyl)-4-ethyl-3-(3-(4-(5-(3-fluorooxetan-3-yl)pyridine-2-yl)phenyl)propyl)-1H-1,2,4-triazol-5(4H)-one]: 41 nM; `CCn1c(CCCc2ccc(-c3ccc(OC)c(NS(=O)(=O)C4CCCCC4)n3)cc2)nn(Cc2ccc(C(C)(C)C)cc2)c1=O` [Example 192, 1-{[4-(tert-Butyl)phenyl]methyl}-4-ethyl-3-[3-(4-{6-[(cyclohexylsulfonyl)amino]-5-methoxy(2-pyridyl)}phenyl)propyl]-1,2,4-triazolin-5-one]: 12 nM.
The result for `CCn1c(CCCc2ccc(-c3cc(OC)cc(C(=O)O)c3)cc2)nn(Cc2ccc(C(C)(C)C)cc2)c1=O` [Example 193, 3-{4-[3-(1-{[4-(tert-Butyl)phenyl]methyl}-4-ethyl-5-oxo(1,2,4-triazolin-3-yl))propyl]phenyl}-5-methoxybenzoic acid] reads 21 nM.
The result for `CCn1c(CCCc2ccc(-c3cc(CC(=O)O)cc(OC)c3)cc2)nn(Cc2ccc(C(C)(C)C)cc2)c1=O` [Example 194, 2-(3-{4-[3-(1-{[4-(tert-Butyl)phenyl]methyl}-4-ethyl-5-oxo(1,2,4-triazolin-3-yl))propyl]phenyl}-5-methoxyphenyl)acetic acid] reads 83 nM; that for `CCn1c(CCC(F)(F)c2ccc(-c3ccc(C4(F)COC4)cn3)cc2)nn(Cc2ccc(C(C)(C)C)cc2)c1=O` [Example 195, 1-(4-(tert-Butyl)benzyl)-3-(3,3-difluoro-3-(4-(5-(3-fluorooxetan-3-yl)pyridine-2-yl)phenyl)propyl)-4-ethyl-1H-1,2,4-triazol-5(4H)-one], 49 nM; that for `CCn1c(CCC(F)(F)c2ccc(-c3ccc(C4(O)COC4)cc3)cc2)nn(Cc2ccc(C(C)(C)C)cc2)c1=O` [Example 196, 1-(4-(tert-Butyl)benzyl)-3-(3,3-difluoro-3-(4′-(3-hydroxyoxetan-3-yl)-[1,1′-biphenyl]-4-yl)propyl)-4-ethyl-1H-1,2,4-triazol-5(4H)-one], 110 nM.
With `CCn1c(CCCc2ccc(-c3ccc(C4(O)COC4)cn3)cc2)nn(Cc2ccc(C(C)(C)C)cc2)c1=O` [Example 197, 1-(4-(tert-Butyl)benzyl)-4-ethyl-3-(3-(4-(5-(3-hydroxyoxetan-3-yl)pyridine-2-yl)phenyl)propyl)-1H-1,2,4-triazol-5(4H)-one], the IC50 was 106 nM.
Turning to `CCn1c(CCCc2ccc(-c3ccc(OC)c(CC(=O)O)c3)cn2)nn(Cc2ccc(C(C)(C)C)cc2)c1=O` [Example 198, 2-(5-(6-(3-(1-(4-(tert-Butyl)benzyl)-4-ethyl-5-oxo-4,5-dihydro-1H-1,2,4-triazol-3-yl)propyl)pyridin-3-yl)-2-methoxyphenyl)acetic acid], the IC50 was 623 nM.
Next, `CCn1c(CCCc2ccc(-c3ccc(CC(=O)O)c(OC)c3)cc2)nn(Cc2ccc(C(C)(C)C)cc2)c1=O` [Example 199, 2-(4′-(3-(1-(4-(tert-Butyl)benzyl)-4-ethyl-5-oxo-4,5-dihydro-1H-1,2,4-triazol-3-yl)propyl)-3-methoxy-[1,1′-biphenyl]-4-yl)acetic acid]: 292 nM.
Next, `CCn1c(CCCc2ccc(-c3ccc(OC(C)C)c(CC(=O)O)c3)cc2)nn(Cc2ccc(C(C)(C)C)cc2)c1=O` [Example 200, 2-(4′-(3-(1-(4-(tert-Butyl)benzyl)-4-ethyl-5-oxo-4,5-dihydro-1H-1,2,4-triazol-3-yl)propyl)-4-isopropoxy-[1,1′-biphenyl]-3-yl)acetic acid]: 13 nM.
